In patent publication US4801616A, “Diphenylmethanone compounds and anti-inflammatory use thereof” (Eli Lilly and Company, priority 1986, dated 1989):

Legend:
[1] = biological target: T1, 5-lipoxygenase (Cavia porcellus, UniProt A0A286X958); experiment: 5-Lipoxygenase (5-LPO) Assay, inhibition of 5-HETE formation in PMNL sonicate supernatant; assay type: biochemical, guinea pig; details: for IC50: guinea pig PMNL sonicate supernatant, 37° C., 5 μM 14C-arachidonic acid
T1 construct: incubating 0.2 ml of the supernatant obtained from the PMNL sonicate with the test compound; from tissue; host or cells: casein-elicited guinea pig peritoneal polymorphonuclear leukocytes (PMNL, more than 95 percent of the cells), sonicated, 30,000 x g supernatant
T1 sequence (A0A286X958 1-674): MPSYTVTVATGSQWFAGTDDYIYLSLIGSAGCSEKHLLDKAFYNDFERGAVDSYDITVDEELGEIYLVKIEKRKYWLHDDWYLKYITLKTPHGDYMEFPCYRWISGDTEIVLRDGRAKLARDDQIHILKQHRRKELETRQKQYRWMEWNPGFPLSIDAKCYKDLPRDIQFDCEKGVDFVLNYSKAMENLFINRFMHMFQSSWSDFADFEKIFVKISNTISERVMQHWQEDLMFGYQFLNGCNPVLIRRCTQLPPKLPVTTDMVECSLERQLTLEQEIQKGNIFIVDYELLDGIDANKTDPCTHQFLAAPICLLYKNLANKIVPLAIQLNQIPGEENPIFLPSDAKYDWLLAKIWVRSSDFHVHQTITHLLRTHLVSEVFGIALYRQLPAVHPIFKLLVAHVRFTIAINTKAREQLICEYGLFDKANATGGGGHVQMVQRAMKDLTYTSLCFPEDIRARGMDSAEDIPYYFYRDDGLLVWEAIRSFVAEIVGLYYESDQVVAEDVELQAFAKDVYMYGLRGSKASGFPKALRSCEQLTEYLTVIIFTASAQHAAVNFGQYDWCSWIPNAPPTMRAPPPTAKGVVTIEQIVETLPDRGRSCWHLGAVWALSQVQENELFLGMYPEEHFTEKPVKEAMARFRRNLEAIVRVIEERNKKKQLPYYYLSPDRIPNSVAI
Protocol: 5-Lipoxygenase (5-LPO) Assay
Ten milliliters of a 2% casein solution were injected intraperitoneally into guinea pigs weighing 250-300 gm. After 16-18 hours, the guinea pigs were killed by suffocation in a carbon dioxide chamber. The peritoneal cavity was infused with 70 ml of saline and 40-50 ml of the fluid were recovered from the cavity. After centrifugation, cell pellets were washed twice in Hank's balanced salt solution (HBSS) without calcium ion.
The cells were then suspended in 5 ml of sodium phosphate buffer, pH 7.1 containing 1 mM EDTA, and 0.1% gelatin. About 20-30×10^7 cells were obtained from one guinea pig.
The PMNL suspension was disrupted by five 1/2 second pulse sonications at the setting of 3 in a Branson Sonifier, Model 350, equipped with a microtip. The sonicates were combined and centrifuged at 30,000× g for 10 minutes. The supernatant was kept frozen at -70° C. until use.
Enzyme activity was determined by assaying for 5-HETE formation by first incubating 0.2 ml of the supernatant obtained from the PMNL sonicate with the test compound, 1 mM CaCl2, 2 mM ATP, and 1 mM GSH for 5 minutes at 37° C. The mixture is treated with 5 μM ^14 C-arachidonicacid and incubated at 37° C. an additional 10 minutes. The enzyme reaction was then stopped by the addition of 10 μl of 1M citric acid and 10μl of an alcohol solution containing 20 mg/ml each of indomethacin and butylated hydroxyanisole (BHA). The reaction mixture was spotted (50 μl on a silica gel plate (Baker TLC plate S1250-PA-19C) and subjected to TLC in a solvent system of ethyl acetate/2,2,4-trimethylpentane/glacial acetic acid/water (90:50:20:100).
The radioactivity of the arachidonic acid and its metabolites (5-HETE and LTB4) was visualized from a developed x-ray film which had been exposed to the TLC plate 1-2 days. The amount of 5-HETE formed was quantitated by scraping the silica gel area corresponding to the spot on the x-ray film, and the radioactivity determined in a Isocap/300 liquid scintillation counter (Searle Analytic, Inc.).
The percent inhibition of the formation of 5-HETE was determined for each concentration of test compound tested as compared to a control experiment wherein no test compound was added. The concentration and percent inhibition values were plotted on semi log paper and the concentration in which formation of 5-HETE is inhibited by 50% (IC50) was determined by interpolation.

[2] = system: Collagen-Induced Arthritis; experiment: Collagen-Induced Arthritis Assay, hindpaw volume; assay type: in vivo, rat (inbred Lewis male); details: Rattus norvegicus, po, oral gavage, 5 days per week, 28 or 30 days, rats
Protocol: Collagen-Induced Arthritis Assay
Type II collagen was isolated from bovine articular cartilage by the method of Strawich and Nimni Biochemistry, 10, 3905 (1971)]. The collagen was dissolved in 0.1 M acetic acid and stored at -20° C. Type II collagen solution was diluted to 2 mg/ml concentration and emulsified thoroughly with an equal volume of incomplete Freund's adjuvant (ICFA). The emulsion containing approximately 0.5 mg of collagen was injected intradermally on day 0 to groups of 6 inbred Lewis male rats (Charles River Breeders; 170-200 g) at various sites in the dorsal area. The hindpaw volumes of each rat were measured and recorded three times a week throughout the test period to assess the inflammatory reaction. The test group animals received compounds under test as suspensions in carboxymethylcellulose vehicle, by oral gavage, 5 days per week (Monday-Friday), beginning on day 1. Control animals received vehicle without a test compound. At the end of the test (day 28 or 30), the blood of these animals was drawn by cardiac puncture and the serum anti-type II collagen antibody levels were estimated by passive hemagglutination technique, using glutaraldehyde treated sheep red cells, to which type II collagen is conjugated [Avramaes et al., Immunochemistry, 6, 67 (1969); Andriopoulos et al., Arth. Rheum. 19, 613 (1976)]. The cellular response or delayed-type hypersensitivity response to type II collagen was measured by the radiometric ear index assay [Kostiala, Immunology, 33, 561 (1977)]. In certain experiments, the bone damage occurring because of immunization with type II collagen and the effects of drugs were determined from the radiographs of the hindpaws of two or three representative animals from each group. Injections of ICFA without collagen II were employed in some rats as a negative control; these rate received only carbomethoxycellulose vehicle during the test.
The % inhibition was calculated according to the following formula: [formula] where Vt is the hindpaw volume of a compound-treated animal (test group), Vc is the hindpaw volume of a non-compound-treated animal (carbomethoxycellulose vehicle only--the control group), and Vv is the hindpaw volume of a vehicle (carbomethoxycellulose) treated animal which received ICFA with no collagen II (negative control group).

| IC50 [1] [nM] | inhibition at 10 µg/mL ([1]; percent inhibition at 10 μg/ml) [%] | SMILES | inhibition in vivo at 50 mg/kg [2] [%] | inhibition in vivo at 10 mg/kg [2] [%] | inhibition in vivo at 25 mg/kg [2] [%] | inhibition in vivo at 3 mg/kg [2] [%] | inhibition in vivo at 30 mg/kg [2] [%] |
| --- | --- | --- | --- | --- | --- | --- | --- |
| 2830 |  | CCCc1c(OCCCCC#N)ccc(C(=O)c2ccccc2O)c1O [Example 11, 5-[3-Hydroxy-4-(2-hydroxybenzoyl)-2-propylphenoxy]pentanenitrile] |  | 0 | 31 |  |  |
| 11800 |  | CCCc1c(OCCCCCCc2nnn[nH]2)ccc(C(=O)c2ccccc2O)c1O [Example 25, (2-Hydroxyphenyl)[2-hydroxy-3-propyl-4-([6-(1H-tetrazol-5-yl)hexyl]oxy)phenyl]methanone] |  |  | 39 |  |  |
| 1330 |  | CCCc1c(OCCCCCCCCc2nnn[nH]2)ccc(C(=O)c2ccccc2O)c1O [Example 28, (2-Hydroxyphenyl)[2-hydroxy-3-propyl-4-([8-(1H-tetrazol-5-yl)octyl]oxy)phenyl]methanone] |  | 48 |  | 65 | 95 |

Continued, molecule first:

| SMILES | IC50 [1] [nM] | inhibition at 10 µg/mL ([1]; percent inhibition at 10 μg/ml) [%] | inhibition in vivo at 50 mg/kg [2] [%] | inhibition in vivo at 10 mg/kg [2] [%] | inhibition in vivo at 25 mg/kg [2] [%] | inhibition in vivo at 3 mg/kg [2] [%] | inhibition in vivo at 30 mg/kg [2] [%] |
| --- | --- | --- | --- | --- | --- | --- | --- |
| CCCc1c(O)ccc(C(=O)c2ccccc2O)c1O [Example 4, (2,4-Dihydroxy-3-propylphenyl)(2hydroxyphenyl)methanone] | 5880 |  | 47 |  |  |  |  |
| COc1ccccc1C(=O)c1ccc(OC)c(C)c1O [Example 9, (2-hydroxy-4-methoxy-3-methylphenyl)(2-methoxyphenyl)methanone] | 3670 |  | 0 |  |  |  |  |
| CCCc1c(OCCCCc2nnn[nH]2)ccc(C(=O)c2ccccc2OC)c1O [Example 23, (2-Hydroxy-3-propyl-4-[4-(1H-tetrazol-5-yl)butoxy]phenyl)(2-methoxyphenyl)methanone] | 1710 |  |  | 67 | 69 | 33 |  |
| CCCc1c(OCCCCc2nnn[nH]2)ccc(C(=O)c2ccccc2O)c1O [Example 26, (2-Hydroxyphenyl)(2-hydroxy-3-propyl-4[4-(1H-tetrazol-5-yl)butoxy]phenyl)methanone] | 1260 |  |  |  | 71 | 65 | 62 |
| CCCc1c(OCCCCC(=O)O)ccc(C(=O)c2ccccc2O)c1O [Example 30, 5-[3-Hydroxy-4-(2-hydroxybenzoyl)-2-propylphenoxy]pentanoic acid] |  | 37 | 24 |  |  |  |  |
